Literature values as cited in US20180140566A1, “ACETAMINOPHEN AND TRAMADOL COMPOUND ORAL SOLUTION” (BORA PHARMACEUTICALS CO., LTD., priority 2016, published 2018).

SMILES | solubility in acetone (acetone, in words) | solubility in water (water, in words) | amount of acetaminophen dissolved per milliliter of water (per milliliter (mL) of water, at 25 degrees Celsius)
COc1cccc(C2(O)CCCCC2CN(C)C)c1 (stereo not drawn) [Tramadol, tramadol] | hardly dissolves | makes great aqueous solutions | 
CC(=O)Nc1ccc(O)cc1 [acetaminophen] |  |  | no more than 14.00 mg
